This note sets out measurements from ChEMBL document CHEMBL5465560, “Selectivity Literature for EUbOPEN Chemogenomic Library” (2024).

Assay [1] addresses T1, Serine/threonine-protein kinase TAO1 (Homo sapiens) (UniProt Q7L7X3).
T1 sequence (whole entry): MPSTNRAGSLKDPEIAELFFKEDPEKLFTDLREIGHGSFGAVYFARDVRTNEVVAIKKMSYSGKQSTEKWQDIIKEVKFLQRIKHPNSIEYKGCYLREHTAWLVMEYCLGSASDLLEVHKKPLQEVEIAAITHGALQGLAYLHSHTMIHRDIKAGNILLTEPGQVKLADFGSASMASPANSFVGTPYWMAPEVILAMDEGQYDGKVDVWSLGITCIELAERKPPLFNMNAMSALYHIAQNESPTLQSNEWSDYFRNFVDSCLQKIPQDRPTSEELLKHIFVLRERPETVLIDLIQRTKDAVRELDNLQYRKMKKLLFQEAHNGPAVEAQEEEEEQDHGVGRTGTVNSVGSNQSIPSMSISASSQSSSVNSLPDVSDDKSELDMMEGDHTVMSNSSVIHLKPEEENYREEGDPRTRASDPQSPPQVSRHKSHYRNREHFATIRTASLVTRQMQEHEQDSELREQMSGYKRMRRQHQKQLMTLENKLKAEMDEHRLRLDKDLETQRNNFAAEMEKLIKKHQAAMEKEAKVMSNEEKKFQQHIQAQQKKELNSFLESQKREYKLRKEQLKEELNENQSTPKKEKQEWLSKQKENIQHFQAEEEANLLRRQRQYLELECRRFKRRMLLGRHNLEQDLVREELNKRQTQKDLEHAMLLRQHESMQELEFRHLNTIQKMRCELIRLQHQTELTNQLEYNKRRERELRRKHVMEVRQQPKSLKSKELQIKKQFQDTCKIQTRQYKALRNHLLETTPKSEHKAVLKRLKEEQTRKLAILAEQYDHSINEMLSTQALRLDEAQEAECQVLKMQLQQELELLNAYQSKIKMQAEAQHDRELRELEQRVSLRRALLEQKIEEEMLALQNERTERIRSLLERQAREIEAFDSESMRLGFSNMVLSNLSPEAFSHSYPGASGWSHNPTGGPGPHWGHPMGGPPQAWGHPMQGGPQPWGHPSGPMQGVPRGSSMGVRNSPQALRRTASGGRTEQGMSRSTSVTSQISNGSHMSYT
Description: Selectivity interaction (Kinase panel (KiNativ target engagement assay in Jurkat cells)) EUB0001635a TAOK1. In kind it is cell-based. The following applies: Selectivity number of off-targets 0.0, Selectivity number of targets 233.0, Source Knowledge https://www.sciencedirect.com/science/article/pii/S2451945619300674?via%3Dihub, at 1 µM.

The target in assay [2] is Mitogen-activated protein kinase 10 (Homo sapiens, UniProt P53779). Put plainly: Selectivity interaction (KinomeScan (DiscoverX)) EUB0000655a MAPK10. The note with it: at 10 µM.
Mitogen-activated protein kinase 10, sequence (P53779 whole entry, canonical isoform): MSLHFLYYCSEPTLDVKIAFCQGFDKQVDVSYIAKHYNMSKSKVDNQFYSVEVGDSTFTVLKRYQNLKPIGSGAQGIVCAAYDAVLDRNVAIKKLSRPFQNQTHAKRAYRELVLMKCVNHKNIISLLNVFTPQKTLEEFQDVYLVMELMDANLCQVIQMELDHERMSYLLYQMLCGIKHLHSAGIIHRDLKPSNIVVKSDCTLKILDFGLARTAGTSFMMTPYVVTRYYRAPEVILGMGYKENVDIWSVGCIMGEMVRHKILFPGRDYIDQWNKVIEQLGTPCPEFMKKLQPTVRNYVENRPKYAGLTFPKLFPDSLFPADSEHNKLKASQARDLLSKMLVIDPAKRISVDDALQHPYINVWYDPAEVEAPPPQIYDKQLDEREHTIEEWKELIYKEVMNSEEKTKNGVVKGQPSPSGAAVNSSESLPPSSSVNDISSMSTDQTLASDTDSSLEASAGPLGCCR
In assay [3] the target is T2, Phosphorylase b kinase gamma catalytic chain, liver/testis isoform (Homo sapiens) (UniProt P15735).
T2 sequence (whole entry): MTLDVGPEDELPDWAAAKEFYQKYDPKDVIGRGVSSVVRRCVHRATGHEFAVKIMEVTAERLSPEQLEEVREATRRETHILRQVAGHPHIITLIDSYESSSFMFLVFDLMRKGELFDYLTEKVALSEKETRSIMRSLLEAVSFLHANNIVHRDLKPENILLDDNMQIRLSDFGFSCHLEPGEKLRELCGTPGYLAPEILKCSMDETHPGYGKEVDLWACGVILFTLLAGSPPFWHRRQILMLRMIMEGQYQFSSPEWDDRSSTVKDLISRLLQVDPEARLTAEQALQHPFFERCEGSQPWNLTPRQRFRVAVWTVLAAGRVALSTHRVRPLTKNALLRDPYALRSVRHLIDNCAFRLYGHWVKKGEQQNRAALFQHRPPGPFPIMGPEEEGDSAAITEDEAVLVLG
Put plainly: Selectivity interaction (KinomeScan (DiscoverX)) EUB0001079a PHKG2. The following applies: at 1 µM.

Assay [4] concerns the target Ribosomal protein S6 kinase alpha-1 (Homo sapiens, UniProt Q15418). Put plainly: Selectivity interaction (ActivX KiNativ screen (kinase selectivity in THP-1 cell lysates)) EUB0000639a RPS6KA1. Type of assay: subcellular. The note with it: lysate, at 0.04 µM.
The next assay concerns the target Focal adhesion kinase 1 (Homo sapiens, UniProt Q05397). Description: Selectivity interaction (ActivX KiNativ screen (kinase selectivity in THP-1 cell lysates)) EUB0000639a PTK2. The note with it: lysate, at 5 µM. In kind it is subcellular.
The target of assay [5] is Tyrosine-protein kinase Fer (Homo sapiens) (UniProt P16591). The note with it: at 10 µM.
Tyrosine-protein kinase Fer (Homo sapiens), sequence (P16591 whole entry, looked up): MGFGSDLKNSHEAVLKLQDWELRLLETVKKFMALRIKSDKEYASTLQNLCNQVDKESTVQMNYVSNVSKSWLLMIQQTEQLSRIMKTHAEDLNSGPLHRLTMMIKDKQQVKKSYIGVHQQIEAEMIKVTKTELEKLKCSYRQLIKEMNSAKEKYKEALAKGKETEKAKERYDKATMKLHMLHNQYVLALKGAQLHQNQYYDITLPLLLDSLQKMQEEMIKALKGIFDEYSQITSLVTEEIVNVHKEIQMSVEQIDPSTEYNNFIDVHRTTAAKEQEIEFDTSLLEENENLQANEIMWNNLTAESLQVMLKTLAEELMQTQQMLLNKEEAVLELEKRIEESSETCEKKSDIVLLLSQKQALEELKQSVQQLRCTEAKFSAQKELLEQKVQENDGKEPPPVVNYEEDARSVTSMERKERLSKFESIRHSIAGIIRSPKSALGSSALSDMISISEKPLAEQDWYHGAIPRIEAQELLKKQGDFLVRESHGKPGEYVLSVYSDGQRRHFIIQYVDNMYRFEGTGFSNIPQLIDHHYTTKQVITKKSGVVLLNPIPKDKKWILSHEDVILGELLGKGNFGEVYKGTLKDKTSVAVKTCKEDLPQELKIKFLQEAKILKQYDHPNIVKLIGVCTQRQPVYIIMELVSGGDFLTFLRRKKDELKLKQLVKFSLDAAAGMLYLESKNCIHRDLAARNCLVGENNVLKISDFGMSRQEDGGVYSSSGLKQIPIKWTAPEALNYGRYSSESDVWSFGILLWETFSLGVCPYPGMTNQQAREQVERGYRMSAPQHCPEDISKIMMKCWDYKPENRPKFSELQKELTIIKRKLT
For a further assay, the target named is EML4-ALK (Homo sapiens) (UniProt Q9UM73+Q9HC35). Description: Selectivity interaction (ProQinase) EUB0000171b ALK. Type of assay: protein assay. The note with it: at 1 µM.
EML4-ALK (Homo sapiens), sequence (Q9HC35 whole entry partner): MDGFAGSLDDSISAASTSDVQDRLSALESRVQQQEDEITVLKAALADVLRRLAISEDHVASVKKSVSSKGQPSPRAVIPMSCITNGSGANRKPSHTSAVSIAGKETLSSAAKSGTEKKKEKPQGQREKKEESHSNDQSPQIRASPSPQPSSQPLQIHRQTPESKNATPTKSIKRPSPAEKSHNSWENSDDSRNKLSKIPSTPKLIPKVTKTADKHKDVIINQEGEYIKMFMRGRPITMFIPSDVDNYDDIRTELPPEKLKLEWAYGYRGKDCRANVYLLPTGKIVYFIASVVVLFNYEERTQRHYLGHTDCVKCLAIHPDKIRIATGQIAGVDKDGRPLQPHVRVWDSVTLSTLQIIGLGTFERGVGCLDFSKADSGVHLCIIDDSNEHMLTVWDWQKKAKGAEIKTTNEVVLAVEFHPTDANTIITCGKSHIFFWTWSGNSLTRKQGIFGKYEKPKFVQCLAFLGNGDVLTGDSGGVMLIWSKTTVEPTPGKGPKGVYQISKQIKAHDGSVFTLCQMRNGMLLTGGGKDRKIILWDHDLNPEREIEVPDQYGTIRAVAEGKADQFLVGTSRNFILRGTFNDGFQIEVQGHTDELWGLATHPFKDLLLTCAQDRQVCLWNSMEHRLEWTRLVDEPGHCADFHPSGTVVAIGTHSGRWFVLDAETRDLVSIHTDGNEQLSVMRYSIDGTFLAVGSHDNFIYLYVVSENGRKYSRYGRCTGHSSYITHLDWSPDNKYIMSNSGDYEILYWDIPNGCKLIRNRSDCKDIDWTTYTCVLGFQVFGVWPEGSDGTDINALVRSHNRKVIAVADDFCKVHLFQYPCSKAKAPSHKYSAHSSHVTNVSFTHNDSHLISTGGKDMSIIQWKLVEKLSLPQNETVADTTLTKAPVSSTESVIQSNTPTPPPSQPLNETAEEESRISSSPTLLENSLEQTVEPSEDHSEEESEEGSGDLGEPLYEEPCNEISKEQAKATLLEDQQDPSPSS
EML4-ALK (Homo sapiens), sequence (Q9UM73 19-1620 limits assumed): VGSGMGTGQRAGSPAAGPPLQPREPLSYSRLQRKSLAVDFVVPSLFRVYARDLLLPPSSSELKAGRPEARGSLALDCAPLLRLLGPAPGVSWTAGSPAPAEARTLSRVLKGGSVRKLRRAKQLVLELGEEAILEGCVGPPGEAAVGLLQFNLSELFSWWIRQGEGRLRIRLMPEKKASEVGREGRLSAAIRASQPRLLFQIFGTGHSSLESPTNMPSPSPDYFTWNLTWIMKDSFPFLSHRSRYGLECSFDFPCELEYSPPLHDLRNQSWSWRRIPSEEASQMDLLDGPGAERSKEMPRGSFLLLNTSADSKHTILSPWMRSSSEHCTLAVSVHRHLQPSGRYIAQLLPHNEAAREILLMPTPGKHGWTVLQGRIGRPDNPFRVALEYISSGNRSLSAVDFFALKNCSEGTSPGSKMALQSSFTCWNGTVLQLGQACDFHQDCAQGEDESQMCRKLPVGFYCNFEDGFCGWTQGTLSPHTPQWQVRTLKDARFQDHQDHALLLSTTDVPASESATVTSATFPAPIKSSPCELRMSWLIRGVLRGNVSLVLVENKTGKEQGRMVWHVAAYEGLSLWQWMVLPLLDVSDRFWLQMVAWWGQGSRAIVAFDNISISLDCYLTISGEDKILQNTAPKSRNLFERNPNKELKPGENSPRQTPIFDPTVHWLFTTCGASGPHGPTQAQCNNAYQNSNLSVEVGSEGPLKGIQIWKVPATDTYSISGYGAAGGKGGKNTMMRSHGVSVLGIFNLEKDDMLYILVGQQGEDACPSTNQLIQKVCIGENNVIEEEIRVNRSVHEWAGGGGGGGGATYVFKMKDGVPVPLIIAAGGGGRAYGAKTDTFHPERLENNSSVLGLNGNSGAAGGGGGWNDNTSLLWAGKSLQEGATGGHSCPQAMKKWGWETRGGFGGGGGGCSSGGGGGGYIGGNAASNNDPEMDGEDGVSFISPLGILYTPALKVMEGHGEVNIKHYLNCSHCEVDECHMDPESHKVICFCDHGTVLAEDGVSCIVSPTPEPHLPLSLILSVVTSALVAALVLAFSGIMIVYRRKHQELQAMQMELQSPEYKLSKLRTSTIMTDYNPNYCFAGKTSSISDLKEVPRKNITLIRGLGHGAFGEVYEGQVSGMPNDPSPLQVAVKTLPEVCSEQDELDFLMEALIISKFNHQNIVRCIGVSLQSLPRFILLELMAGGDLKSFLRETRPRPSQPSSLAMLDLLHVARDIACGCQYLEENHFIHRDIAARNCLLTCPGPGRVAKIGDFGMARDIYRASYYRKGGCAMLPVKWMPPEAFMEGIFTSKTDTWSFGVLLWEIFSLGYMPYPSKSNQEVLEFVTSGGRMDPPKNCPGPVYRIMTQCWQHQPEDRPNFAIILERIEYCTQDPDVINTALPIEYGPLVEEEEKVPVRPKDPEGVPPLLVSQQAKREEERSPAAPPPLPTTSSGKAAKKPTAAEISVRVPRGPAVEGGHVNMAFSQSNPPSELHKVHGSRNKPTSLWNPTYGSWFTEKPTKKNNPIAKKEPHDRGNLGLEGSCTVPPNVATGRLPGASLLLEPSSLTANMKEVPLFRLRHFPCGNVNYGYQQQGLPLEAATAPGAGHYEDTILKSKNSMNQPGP
Assay [6] deals with T3, Protein kinase C epsilon type (Homo sapiens) (UniProt Q02156).
T3 sequence (whole entry): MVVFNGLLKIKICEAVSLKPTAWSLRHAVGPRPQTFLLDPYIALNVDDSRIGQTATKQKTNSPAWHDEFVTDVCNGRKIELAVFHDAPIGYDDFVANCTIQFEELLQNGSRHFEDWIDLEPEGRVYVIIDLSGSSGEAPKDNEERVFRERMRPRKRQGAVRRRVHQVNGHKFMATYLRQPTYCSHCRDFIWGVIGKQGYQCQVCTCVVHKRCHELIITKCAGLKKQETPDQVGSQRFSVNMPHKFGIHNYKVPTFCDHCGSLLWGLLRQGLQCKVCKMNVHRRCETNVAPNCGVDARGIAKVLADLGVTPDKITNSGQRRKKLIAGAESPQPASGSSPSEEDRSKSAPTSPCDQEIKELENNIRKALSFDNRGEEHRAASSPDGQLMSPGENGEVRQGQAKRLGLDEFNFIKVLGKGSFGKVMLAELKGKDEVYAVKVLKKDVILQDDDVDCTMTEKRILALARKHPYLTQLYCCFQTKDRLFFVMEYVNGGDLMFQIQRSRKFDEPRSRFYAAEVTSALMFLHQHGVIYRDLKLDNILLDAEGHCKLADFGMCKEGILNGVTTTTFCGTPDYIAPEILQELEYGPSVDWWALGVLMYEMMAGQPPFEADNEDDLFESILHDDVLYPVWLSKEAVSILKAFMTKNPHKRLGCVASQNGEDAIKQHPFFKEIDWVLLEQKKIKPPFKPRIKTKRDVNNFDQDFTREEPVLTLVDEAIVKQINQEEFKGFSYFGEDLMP
Put plainly: Selectivity interaction (KinomeScan (DiscoverX)) EUB0000595a PRKCE. The note with it: at 10 µM.

Focal adhesion kinase 1, sequence (Q05397 2-1052 limits assumed): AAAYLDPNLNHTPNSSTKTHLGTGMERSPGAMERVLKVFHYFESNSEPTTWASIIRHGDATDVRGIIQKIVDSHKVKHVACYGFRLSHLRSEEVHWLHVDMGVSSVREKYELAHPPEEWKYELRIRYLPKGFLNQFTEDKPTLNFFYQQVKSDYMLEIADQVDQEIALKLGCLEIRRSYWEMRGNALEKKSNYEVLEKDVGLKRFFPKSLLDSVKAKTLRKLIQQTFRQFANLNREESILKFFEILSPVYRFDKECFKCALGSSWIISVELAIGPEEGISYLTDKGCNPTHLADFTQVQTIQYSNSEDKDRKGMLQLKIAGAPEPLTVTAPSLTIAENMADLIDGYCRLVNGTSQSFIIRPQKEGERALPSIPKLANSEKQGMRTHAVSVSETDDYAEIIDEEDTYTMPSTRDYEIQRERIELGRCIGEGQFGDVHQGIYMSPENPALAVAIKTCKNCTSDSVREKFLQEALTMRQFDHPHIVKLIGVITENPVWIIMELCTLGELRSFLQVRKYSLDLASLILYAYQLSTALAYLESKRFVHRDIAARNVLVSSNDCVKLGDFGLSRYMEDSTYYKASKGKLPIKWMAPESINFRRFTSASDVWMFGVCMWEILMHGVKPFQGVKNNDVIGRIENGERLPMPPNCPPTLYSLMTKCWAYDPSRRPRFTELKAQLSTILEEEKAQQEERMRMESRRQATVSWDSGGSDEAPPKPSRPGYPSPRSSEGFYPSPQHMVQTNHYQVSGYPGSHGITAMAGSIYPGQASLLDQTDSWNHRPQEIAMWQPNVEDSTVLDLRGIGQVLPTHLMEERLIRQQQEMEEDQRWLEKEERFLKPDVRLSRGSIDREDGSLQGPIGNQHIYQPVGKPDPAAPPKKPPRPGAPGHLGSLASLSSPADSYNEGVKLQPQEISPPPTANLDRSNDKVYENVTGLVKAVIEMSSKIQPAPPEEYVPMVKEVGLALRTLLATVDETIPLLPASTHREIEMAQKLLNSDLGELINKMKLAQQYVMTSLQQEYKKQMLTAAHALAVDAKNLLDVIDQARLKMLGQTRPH

Regarding `C=CC(=O)Nc1ccc(C(=O)Nc2[nH]nc3c2CN(C(=O)N[C@H](CN(C)C)c2ccccc2)C3(C)C)cc1`, the % of engagement in assay [1] is -0.7%. Regarding `CN(C)CCOc1ccc(-c2nc(-c3ccncc3)c(-c3ccc4c(c3)CC/C4=N\O)[nH]2)cc1`, in assay [2], the % of control is 8.6%.

Molecule `Nc1cnc(N2CCc3cc(S(=O)(=O)Nc4c(F)cc(Cl)cc4F)cc(N4CCCC4=O)c32)nc1` [TP-020n] gave a % of control in assay [3] of 100%. For `CC[C@@H]1[C@H](F)C(=O)N[C@@H]1COc1nccc2cc(C(N)=O)c(OC)cc12` [ZIMLOVISERTIB], the % of inhibition in assay [4] is 6.3%; at Focal adhesion kinase 1, -9.4%. With `CCN(CC)CCCCNc1ncc2cc(-c3cc(OC)cc(OC)c3)c(NC(=O)NC(C)(C)C)nc2n1`, the % of control in assay [5] turned out to be 100%. In turn, `C=CC(=O)Nc1cccc(C(=O)Nc2ccc(Nc3cc(-c4[nH]c(SC)nc4C)ccn3)cc2)c1` showed a % of control at EML4-ALK (Homo sapiens) of 93%.

As for `COCC(=O)NC/C=C/c1ccc2ncnc(Nc3ccc(Oc4ccc(C)nc4)c(C)c3)c2c1` [CP-724714], in assay [6], the % of control is 100%.
